Measured values reported in publication PMC10866072, “Design, synthesis, molecular modelling and biological evaluation of novel 6-amino-5-cyano-2-thiopyrimidine derivatives as potent anticancer agents against leukemia and apoptotic inducers” (Journal of Enzyme Inhibition and Medicinal Chemistry, 2024).

Experiments:
[1] = test system: T-47D; assay type: cell-based; settings: Homo sapiens, T47D, one dose 10^-5 M, 48 h, read-out: % growth
[2] = test system: OVCAR-8; assay type: cell-based; settings: Homo sapiens, one dose 10^-5 M, 48 h
[3] = test system: M14; assay type: cell-based; settings: Homo sapiens, one dose 10^-5 M, 48 h
[4] = test system: OVCAR-4; assay type: cell-based; settings: Homo sapiens, one dose 10^-5 M, 48 h
[5] = test system: SNB-19; assay type: cell-based; settings: Homo sapiens, one dose 10^-5 M, 48 h, read-out: % growth
[6] = test system: SK-MEL-5; assay type: cell-based; settings: Homo sapiens, one dose 10^-5 M, 48 h, read-out: % growth
[7] = test system: 786-0; assay type: cell-based; settings: Homo sapiens, one dose 10^-5 M, 48 h
[8] = test system: A549/ATCC; assay type: cell-based; settings: Homo sapiens, one dose 10^-5 M, 48 h
[9] = test system: UACC-257; assay type: cell-based; settings: Homo sapiens, one dose 10^-5 M, 48 h
[10] = test system: TK-10; assay type: cell-based; settings: Homo sapiens, one dose 10^-5 M, 48 h
[11] = test system: A498; assay type: cell-based; settings: Homo sapiens, one dose 10^-5 M, 48 h
[12] = test system: LOX IMVI; assay type: cell-based; settings: Homo sapiens, one dose 10^-5 M, 48 h, read-out: % growth
[13] = test system: NCI-H522; assay type: cell-based; settings: Homo sapiens, one dose 10^-5 M, 48 h
[14] = test system: KM12; assay type: cell-based; settings: Homo sapiens, one dose 10^-5 M, 48 h
[15] = test system: MDA-MB-231/ATCC; assay type: cell-based; settings: Homo sapiens, one dose 10^-5 M, 48 h
[16] = test system: NCI-H226; assay type: cell-based; settings: Homo sapiens, one dose 10^-5 M, 48 h
[17] = test system: SF-539; assay type: cell-based; settings: Homo sapiens, one dose 10^-5 M, 48 h
[18] = test system: CCRF-CEM; assay type: cell-based; settings: Homo sapiens, one dose 10^-5 M, 48 h
[19] = test system: SK-OV-3; assay type: cell-based; settings: Homo sapiens, one dose 10^-5 M, 48 h
[20] = test system: MDA-MB-435; assay type: cell-based; settings: Homo sapiens, one dose 10^-5 M, 48 h, read-out: % growth
[21] = test system: HT29; assay type: cell-based; settings: Homo sapiens, HT-29, one dose 10^-5 M, 48 h
[22] = test system: SF-295; assay type: cell-based; settings: Homo sapiens, one dose 10^-5 M, 48 h
[23] = test system: HCT-116; assay type: cell-based; settings: Homo sapiens, one dose 10^-5 M, 48 h, read-out: % growth
[24] = test system: HL-60(TB); assay type: cell-based; settings: Homo sapiens, one dose 10^-5 M, 48 h
[25] = test system: U251; assay type: cell-based; settings: Homo sapiens, U-251, one dose 10^-5 M, 48 h
[26] = test system: MDA-MB-468; assay type: cell-based; settings: Homo sapiens, one dose 10^-5 M, 48 h
[27] = test system: full NCI 60 cell lines panel; settings: for activity at 10 µM: Homo sapiens, 60 cell, 48 h, read-out: Mean % growth; for activity on all 60 cancer cell lines tested (in words): one dose
[28] = test system: HOP-92; assay type: cell-based; settings: Homo sapiens, one dose 10^-5 M, 48 h
[29] = test system: NCI-H460; assay type: cell-based; settings: Homo sapiens, one dose 10^-5 M, 48 h, read-out: % growth
[30] = test system: HCT-15; assay type: cell-based; settings: Homo sapiens, one dose 10^-5 M, 48 h, read-out: % growth
[31] = test system: MOLT-4; assay type: cell-based; settings: Homo sapiens, one dose 10^-5 M, 48 h, read-out: % growth
[32] = test system: ACHN; assay type: cell-based; settings: Homo sapiens, one dose 10^-5 M, 48 h
[33] = test system: UACC-62; assay type: cell-based; settings: Homo sapiens, one dose 10^-5 M, 48 h
[34] = test system: SR; assay type: cell-based; settings: Homo sapiens, one dose 10^-5 M, 48 h
[35] = test system: MALME-3M; assay type: cell-based; settings: Homo sapiens, one dose 10^-5 M, 48 h
[36] = test system: K-562; assay type: cell-based; settings: Homo sapiens, K562, one dose 10^-5 M, 48 h
[37] = test system: SK-MEL-28; assay type: cell-based; settings: Homo sapiens, one dose 10^-5 M, 48 h
[38] = test system: UO-31; assay type: cell-based; settings: Homo sapiens, UO-31, 48 h, one dose 10^-5 M, 48 h
[39] = test system: HCC-2998; assay type: cell-based; settings: Homo sapiens, one dose 10^-5 M, 48 h
[40] = test system: MCF7; assay type: cell-based; settings: Homo sapiens, one dose 10^-5 M, 48 h, read-out: % growth
[41] = test system: PC-3; assay type: cell-based; settings: Homo sapiens, one dose 10^-5 M, 48 h
[42] = test system: RXF 393; assay type: cell-based; settings: Homo sapiens, RXF 393, 48 h, one dose 10^-5 M, 48 h, read-out: % growth
[43] = test system: NCI/ADR-RES; assay type: cell-based; settings: Homo sapiens, one dose 10^-5 M, 48 h
[44] = test system: SF-268; assay type: cell-based; settings: Homo sapiens, one dose 10^-5 M, 48 h, read-out: % growth
[45] = test system: SN12C; assay type: cell-based, human; settings: Homo sapiens, one dose 10^-5 M, 48 h
[46] = test system: NCI-H23; assay type: cell-based; settings: Homo sapiens, one dose 10^-5 M, 48 h, read-out: % growth
[47] = test system: SW-620; assay type: cell-based; settings: Homo sapiens, one dose 10^-5 M, 48 h
[48] = test system: OVCAR-5; assay type: cell-based; settings: Homo sapiens, one dose 10^-5 M, 48 h
[49] = test system: IGROV1; assay type: cell-based; settings: Homo sapiens, IGROV-1, one dose 10^-5 M, 48 h, read-out: % growth
[50] = test system: SK-MEL-2; assay type: cell-based; settings: Homo sapiens, one dose 10^-5 M, 48 h
[51] = test system: COLO 205; assay type: cell-based; settings: Homo sapiens, one dose 10^-5 M, 48 h
[52] = test system: HOP-62; assay type: cell-based; settings: Homo sapiens, one dose 10^-5 M, 48 h
[53] = test system: EKVX; assay type: cell-based; settings: Homo sapiens, one dose 10^-5 M, 48 h
[54] = test system: HS 578T; assay type: cell-based; settings: Homo sapiens; one dose 10^-5 M, 48 h; HS 578T; read-out: % growth
[55] = test system: OVCAR-3; assay type: cell-based; settings: Homo sapiens, one dose 10^-5 M, 48 h
[56] = test system: CAKI-1; assay type: cell-based; settings: Homo sapiens, CAKI-1, 48 h, one dose 10^-5 M, 48 h
[57] = test system: BT-549; assay type: cell-based; settings: Homo sapiens, one dose 10^-5 M, 48 h
[58] = test system: DU-145; assay type: cell-based; settings: Homo sapiens, one dose 10^-5 M, 48 h
[59] = test system: RPMI-8226; assay type: cell-based; settings: Homo sapiens, one dose 10^-5 M, 48 h

In the case of `CN(C)c1ccc(-c2nc(S)nc(N)c2-c2ncn[nH]2)cc1` [Compound 5a, 4-Aamino-6-[4-(dimethylamino)phenyl]-5-(1H-1,2,4-triazol-5-yl)pyrimidine-2-thiol], the activity at 10 µM [1] was 109%, the % growth of cells at 10 µM [2] was 113% and the % growth at 10 µM [3] was 105%. It also gave a % growth at 10 µM [4] of 115%, an activity at 10 µM [5] of 102% and an activity at 10 µM [6] of 108%. It also gave a % growth at 10 µM [7] of 96.3%, a % growth at 10 µM [8] of 108% and a percent cell growth at 10 µM [9] of 113%. The % cell growth at 10 µM [10] was 117%, the % growth at 10 µM [11] was 131% and the activity at 10 µM [12] was 109%. For the same compound, the % growth at 10 µM [13] was 101%, the % growth at 10 µM [14] was 105% and the % growth at 10 µM [15] was 107%. For the same compound, the % growth at 10 µM [16] was 110%, the % growth at 10 µM [17] was 108% and the % cell growth at 10 µM [18] was 103%. It also gave a % growth at 10 µM [19] of 103%, an activity at 10 µM [20] of 113% and a % growth at 10 µM [21] of 111%. It also gave a % cell growth at 10 µM [22] of 104%, an activity at 10 µM [23] of 102% and a % growth at 10 µM [24] of 84.4%. For the same compound, the % growth at 10 µM [25] was 111%, the percent cell growth at 10 µM [26] was 110% and the activity at 10 µM [27] was 107%. The “activity on all 60 cancer cell lines tested (in words)” value [27] was “weak activity”, the % growth at 10 µM [28] was 100% and the activity at 10 µM [29] was 111%. For the same compound, the activity at 10 µM [30] was 116%, the activity at 10 µM [31] was 100% and the % growth at 10 µM [32] was 119%. It also gave a % growth at 10 µM [33] of 102%, a percent cell growth at 10 µM [34] of 85.7% and a % growth at 10 µM [35] of 96.7%. It also gave a % growth at 10 µM [36] of 89.8%, a % cell growth at 10 µM [37] of 119% and a % cell growth at 10 µM [38] of 93.9%. The % growth at 10 µM [39] was 112%, the activity at 10 µM [40] was 96.6% and the percent cell growth at 10 µM [41] was 102%. The activity at 10 µM [42] was 113%, the cell growth percent at 10 µM [43] was 115% and the activity at 10 µM [44] was 107%. It also gave a % growth at 10 µM [45] of 106%, an activity at 10 µM [46] of 108% and a % growth at 10 µM [47] of 106%. For the same compound, the percent cell growth at 10 µM [48] was 120%, the activity at 10 µM [49] was 109% and the % growth at 10 µM [50] was 116%. The % growth at 10 µM [51] was 116%, the % growth at 10 µM [52] was 103% and the % cell growth at 10 µM [53] was 121%. For the same compound, the activity at 10 µM [54] was 113%, the % growth at 10 µM [55] was 111% and the % growth at 10 µM [56] was 89.7%. For the same compound, the % cell growth at 10 µM [57] was 98.1%, the % growth at 10 µM [58] was 115% and the % growth at 10 µM [59] was 109%.
Work on `N=C(NN=Cc1ccccc1)c1c(N)nc(S)nc1-c1ccc(Cl)cc1Cl` [Compound 4m, 4-Amino-6–(2,4-dichlorophenyl)-2-mercapto-N'-[phenylmethylene]pyrimidine-5-carboximidohydrazide] yielded an activity at 10 µM [1] of 103%, a % growth of cells at 10 µM [2] of 109% and a % growth at 10 µM [3] of 96.2%. It also gave a % growth at 10 µM [4] of 115%, an activity at 10 µM [5] of 95.8% and an activity at 10 µM [6] of 103%. It also gave a % growth at 10 µM [7] of 92.5%, a % growth at 10 µM [8] of 97.4% and a percent cell growth at 10 µM [9] of 106%. It also gave a % cell growth at 10 µM [10] of 140%, a % growth at 10 µM [11] of 125% and an activity at 10 µM [12] of 100%. The % growth at 10 µM [13] was 109%, the % growth at 10 µM [14] was 103% and the % growth at 10 µM [15] was 94.4%. It also gave a % growth at 10 µM [16] of 92%, a % growth at 10 µM [17] of 100% and a % cell growth at 10 µM [18] of 105%. The % growth at 10 µM [19] was 95.6%, the activity at 10 µM [20] was 110% and the % growth at 10 µM [21] was 108%. The % cell growth at 10 µM [22] was 86.9%, the activity at 10 µM [23] was 103% and the % growth at 10 µM [24] was 97.1%. For the same compound, the % growth at 10 µM [25] was 97.3%, the percent cell growth at 10 µM [26] was 91.1% and the activity at 10 µM [27] was 101%. For the same compound, the “activity on all 60 cancer cell lines tested (in words)” value [27] was “weak activity”, the % growth at 10 µM [28] was 69.2% and the activity at 10 µM [29] was 108%. The activity at 10 µM [30] was 101%, the activity at 10 µM [31] was 96.2% and the % growth at 10 µM [32] was 108%. The % growth at 10 µM [33] was 94.3%, the percent cell growth at 10 µM [34] was 83.2% and the % growth at 10 µM [35] was 85.7%. For the same compound, the % growth at 10 µM [36] was 95.8%, the % cell growth at 10 µM [37] was 104% and the % cell growth at 10 µM [38] was 90.1%. For the same compound, the % growth at 10 µM [39] was 105%, the activity at 10 µM [40] was 89.1% and the percent cell growth at 10 µM [41] was 103%. The activity at 10 µM [42] was 89.5%, the cell growth percent at 10 µM [43] was 105% and the activity at 10 µM [44] was 105%. It also gave a % growth at 10 µM [45] of 95.9%, an activity at 10 µM [46] of 98.7% and a % growth at 10 µM [47] of 109%. It also gave a percent cell growth at 10 µM [48] of 108%, an activity at 10 µM [49] of 101% and a % growth at 10 µM [50] of 120%. For the same compound, the % growth at 10 µM [51] was 115%, the % growth at 10 µM [52] was 96.6% and the % cell growth at 10 µM [53] was 103%. For the same compound, the activity at 10 µM [54] was 102%, the % growth at 10 µM [55] was 109% and the % growth at 10 µM [56] was 96%. For the same compound, the % cell growth at 10 µM [57] was 88.5%, the % growth at 10 µM [58] was 111% and the % growth at 10 µM [59] was 104%.
